Tested on: PDC 899932-113-R3-J6 complex spheroid viability
Assay: Anticancer human tumor 899932-113-R3-J6-PDC patient-derived melanoma cell line growth inhibition [RAS]
Conditions: for IC50: curve of first compound; for viability, T/C: stronger effect = lower value
Method in brief: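 Agents were tested in combination matrices in half-log decrements from a top concentration at or near clinical Cmax (10 microM if undetermined). Targets were multi-cell spheroids of tumour lines plus HUVEC and MSC stromal cells.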

[1] = second compound 0.000949 µM, first compound 0.0316 µM
[2] = second compound 0.000949 µM, first compound 0.1 µM
[3] = second compound 0.000949 µM, first compound 0.316 µM
[4] = second compound 0.000949 µM, first compound 1 µM
[5] = second compound 0.003 µM, first compound 0.0316 µM
[6] = second compound 0.003 µM, first compound 0.1 µM
[7] = second compound 0.003 µM, first compound 0.316 µM
[8] = second compound 0.003 µM, first compound 1 µM
[9] = second compound 0.00949 µM, first compound 0.0316 µM
[10] = second compound 0.00949 µM, first compound 0.1 µM
[11] = second compound 0.00949 µM, first compound 0.316 µM
[12] = second compound 0.00949 µM, first compound 1 µM
[13] = second compound 0.03 µM, first compound 0.0316 µM
[14] = second compound 0.03 µM, first compound 0.1 µM
[15] = second compound 0.03 µM, first compound 0.316 µM
[16] = second compound 0.03 µM, first compound 1 µM
[17] = second compound 0.0949 µM, first compound 0.0316 µM
[18] = second compound 0.0949 µM, first compound 0.1 µM
[19] = second compound 0.0949 µM, first compound 0.316 µM
[20] = second compound 0.0949 µM, first compound 1 µM
[21] = second compound 0.3 µM, first compound 0.0316 µM
[22] = second compound 0.3 µM, first compound 0.1 µM
[23] = second compound 0.3 µM, first compound 0.316 µM
[24] = second compound 0.3 µM, first compound 1 µM
[25] = second compound 0.000949 µM, first compound 3.16 µM
[26] = second compound 0.000949 µM, first compound 10 µM
[27] = second compound 0.003 µM, first compound 3.16 µM
[28] = second compound 0.003 µM, first compound 10 µM
[29] = second compound 0.00949 µM, first compound 3.16 µM
[30] = second compound 0.00949 µM, first compound 10 µM
[31] = second compound 0.03 µM, first compound 3.16 µM
[32] = second compound 0.03 µM, first compound 10 µM
[33] = second compound 0.0949 µM, first compound 3.16 µM
[34] = second compound 0.0949 µM, first compound 10 µM
[35] = second compound 0.3 µM, first compound 3.16 µM
[36] = second compound 0.3 µM, first compound 10 µM
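For viability, T/C in this document: spheroids exposed to agents for seven days before readout; 100% = DMSO vehicle control wells.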

Work on CCN1CCN(Cc2ccc(Nc3ncc(F)c(-c4cc(F)c5nc(C)n(C(C)C)c5c4)n3)nc2)CC1 + CCn1c(-c2cccnc2C(C)OC)c2c3cc(ccc31)N1CCOC(CC(NC(=O)C(C(C)C)N(C)C(=O)C3(F)CCN(C(=O)C#CC(C)(C)N(C)C)CC3)C(=O)N3CCCC(N3)C(=O)OCC(C)(C)C2)C1 yielded an IC50 (second compound 0.000949 µM) of over 1 µM, an IC50 (second compound 0.003 µM) of 0.6 µM and an IC50 (second compound 0.00949 µM) of 0.51 µM. For the same compound, the IC50 (second compound 0.03 µM) was 0.52 µM, the IC50 (second compound 0.0949 µM) was 0.641 µM and the IC50 (second compound 0.3 µM) was over 1 µM. For the same compound, the viability, T/C (second compound 0.000949 µM, first compound 0.00316 µM) was 105%, the viability, T/C (second compound 0.000949 µM, first compound 0.01 µM) was 104% and the viability, T/C [1] was 99.5%. For the same compound, the viability, T/C [2] was 82.7%, the viability, T/C [3] was 52.9% and the viability, T/C [4] was 52.1%. The viability, T/C (second compound 0.003 µM, first compound 0.00316 µM) was 108%, the viability, T/C (second compound 0.003 µM, first compound 0.01 µM) was 99.6% and the viability, T/C [5] was 96.1%. It also gave a viability, T/C [6] of 84.2%, a viability, T/C [7] of 57.6% and a viability, T/C [8] of 43.1%. The viability, T/C (second compound 0.00949 µM, first compound 0.00316 µM) was 105%, the viability, T/C (second compound 0.00949 µM, first compound 0.01 µM) was 106% and the viability, T/C [9] was 96.6%. For the same compound, the viability, T/C [10] was 85.6%, the viability, T/C [11] was 52.4% and the viability, T/C [12] was 45.4%. For the same compound, the viability, T/C (second compound 0.03 µM, first compound 0.00316 µM) was 103%, the viability, T/C (second compound 0.03 µM, first compound 0.01 µM) was 97.2% and the viability, T/C [13] was 92.5%. It also gave a viability, T/C [14] of 77.7%, a viability, T/C [15] of 52.3% and a viability, T/C [16] of 45.5%. It also gave a viability, T/C (second compound 0.0949 µM, first compound 0.00316 µM) of 99.8%, a viability, T/C (second compound 0.0949 µM, first compound 0.01 µM) of 90.6% and a viability, T/C [17] of 88%. For the same compound, the viability, T/C [18] was 73.1%, the viability, T/C [19] was 55.7% and the viability, T/C [20] was 46.2%. The viability, T/C (second compound 0.3 µM, first compound 0.00316 µM) was 91.4%, the viability, T/C (second compound 0.3 µM, first compound 0.01 µM) was 89.2% and the viability, T/C [21] was 83.4%. It also gave a viability, T/C [22] of 70.5%, a viability, T/C [23] of 49.9% and a viability, T/C [24] of 53.3%.

Cc1nc(N2CCC3(CC2)COC(C)C3N)c(CO)nc1Sc1ccnc(N)c1Cl (stereo unspecified) + CCn1c(-c2cccnc2C(C)OC)c2c3cc(ccc31)N1CCOC(CC(NC(=O)C(C(C)C)N(C)C(=O)C3(F)CCN(C(=O)C#CC(C)(C)N(C)C)CC3)C(=O)N3CCCC(N3)C(=O)OCC(C)(C)C2)C1 showed an IC50 (second compound 0.000949 µM) of over 10 µM, an IC50 (second compound 0.003 µM) of over 10 µM and an IC50 (second compound 0.00949 µM) of over 10 µM. The IC50 (second compound 0.03 µM) was over 10 µM, the IC50 (second compound 0.0949 µM) was over 10 µM and the IC50 (second compound 0.3 µM) was over 10 µM. For the same compound, the viability, T/C [1] was 109%, the viability, T/C [2] was 102% and the viability, T/C [3] was 108%. For the same compound, the viability, T/C [4] was 113%, the viability, T/C [25] was 112% and the viability, T/C [26] was 118%. For the same compound, the viability, T/C [5] was 102%, the viability, T/C [6] was 96.8% and the viability, T/C [7] was 107%. The viability, T/C [8] was 116%, the viability, T/C [27] was 109% and the viability, T/C [28] was 110%. The viability, T/C [9] was 93.2%, the viability, T/C [10] was 95.5% and the viability, T/C [11] was 112%. For the same compound, the viability, T/C [12] was 121%, the viability, T/C [29] was 114% and the viability, T/C [30] was 110%. The viability, T/C [13] was 91.7%, the viability, T/C [14] was 89.3% and the viability, T/C [15] was 108%. The viability, T/C [16] was 110%, the viability, T/C [31] was 108% and the viability, T/C [32] was 106%. The viability, T/C [17] was 91.2%, the viability, T/C [18] was 85.8% and the viability, T/C [19] was 103%. It also gave a viability, T/C [20] of 94.2%, a viability, T/C [33] of 105% and a viability, T/C [34] of 107%. It also gave a viability, T/C [21] of 82.5%, a viability, T/C [22] of 80.9% and a viability, T/C [23] of 95.6%. For the same compound, the viability, T/C [24] was 81.6%, the viability, T/C [35] was 94.3% and the viability, T/C [36] was 90.7%.

NC1c2ccccc2OC12CCN(c1cnc3c(N4CCCc5ncccc54)n[nH]c3n1)CC2 (stereo unspecified) + CCn1c(-c2cccnc2C(C)OC)c2c3cc(ccc31)N1CCOC(CC(NC(=O)C(C(C)C)N(C)C(=O)C3(F)CCN(C(=O)C#CC(C)(C)N(C)C)CC3)C(=O)N3CCCC(N3)C(=O)OCC(C)(C)C2)C1 gave an IC50 (second compound 0.000949 µM) of over 10 µM, an IC50 (second compound 0.003 µM) of over 10 µM and an IC50 (second compound 0.00949 µM) of over 10 µM. It also gave an IC50 (second compound 0.03 µM) of over 10 µM, an IC50 (second compound 0.0949 µM) of over 10 µM and an IC50 (second compound 0.3 µM) of over 10 µM. It also gave a viability, T/C [1] of 113%, a viability, T/C [2] of 102% and a viability, T/C [3] of 112%. For the same compound, the viability, T/C [4] was 120%, the viability, T/C [25] was 114% and the viability, T/C [26] was 101%. The viability, T/C [5] was 113%, the viability, T/C [6] was 112% and the viability, T/C [7] was 111%. It also gave a viability, T/C [8] of 120%, a viability, T/C [27] of 111% and a viability, T/C [28] of 110%. For the same compound, the viability, T/C [9] was 112%, the viability, T/C [10] was 112% and the viability, T/C [11] was 110%. The viability, T/C [12] was 129%, the viability, T/C [29] was 120% and the viability, T/C [30] was 109%. The viability, T/C [13] was 112%, the viability, T/C [14] was 116% and the viability, T/C [15] was 105%. The viability, T/C [16] was 117%, the viability, T/C [31] was 112% and the viability, T/C [32] was 106%. The viability, T/C [17] was 100%, the viability, T/C [18] was 102% and the viability, T/C [19] was 94.4%. It also gave a viability, T/C [20] of 113%, a viability, T/C [33] of 108% and a viability, T/C [34] of 98.5%. The viability, T/C [21] was 97.7%, the viability, T/C [22] was 85.1% and the viability, T/C [23] was 95.7%. It also gave a viability, T/C [24] of 96.8%, a viability, T/C [35] of 92.6% and a viability, T/C [36] of 85.7%.
